Reference: patent US20110230367A1, “Amphiphilic Peptides Promoting Production of Target miRNA and Method of Regulating Production of Target miRNA” (SNU R&DB FOUNDATION, priority 2009, published 2011)
Entries after “also recorded” stand apart in the source; their conditions may differ.

Experiments:
[1] = test system: recombinant human Dicer processing pre-let7a-1; test: Dicer activity assay in the presence of peptide, substrate pre-let7a-1; format: biochemical; conditions: for initial reaction velocity (V0) of Dicer, normalized to no peptide: 400 nM peptide, pre-let7a-1 substrate, FIG. 2; for initial reaction velocity of Dicer: FIG. 3
Method: Two types of pre-miRNA (pre-let7a-1, pre-miR16-1) used as the substrate for the Dicer enzyme activity assay was ordered and manufactured by ST Pharm Co., Ltd (FIG. 1). For Dicer activity assay, the 5′ end of the synthesized pre-miRNA was labeled with ^32p isotope. Two pmole of each pre-miRNA was isotope labeled with […] of [g-^32P]ATP (New England Biolabs) using 10 units of T4 polynucleotide kinase (New England Biolabs). Total volume of 10 μl was isotope labeled for 1 hr at 37° C. The isotope labeled RNA obtained after the reaction was purified using G-25 Sephadex column (Sigma). The purified substrate was used for measuring Dicer enzyme activity. Total reaction mixture of 30 μl containing 1 nM of isotope labeled pre-miRNA and 0.001 u/μl of recombinant human Dicer (Genlantis, CA, USA) were incubated at 37° C. in 24 mM 4-(2-hydroxyethyl)-1-piperazineethanesulfonic acid, HEPES) buffer system containing 200 mM NaCl, 0.04 mM EDTA, 1 mM ATP and 2.5 mM MgCl2(pH 8.0). After reacting for 0, 10, 30, […], 3 μl of each reaction mixture was mixed with 5 μl of RNA gel loading buffer {95% formamide, 10 mM ethylenediaminetetraacetic acid (EDTA), 0.05% FF (xylene cyanol FF)} and incubated for 5 min at 65° C. The amount of the reaction product was determined by gel running in 15% polyacrylamide gel containing 7M urea, and then the initial reaction velocity (V0) from each reaction was compared. The initial reaction velocity (V0) of the enzyme is the reaction velocity of the initial linear time (until 30 min). Each initial velocity was normalized with the initial velocity from each substrate condition without peptide treatment. The initial reaction velocity of Dicer for pre-let7a-1 and pre-miR16-1 without peptide treatment were […] and 0.018 fmole/min, respectively. Each of the initial reaction velocity is a mean data of more than 3 measurements, and the standard deviation is shown as error bars.

[2] = test system: mature miR16-1 in HCT116 cells; test: Production of mature miRNA in HCT116 cells by northern blotting; format: cell-based; conditions: 2 μM peptide, 3 hrs, FIG. 4
Method: The HCT116 cell was purchased from American Type Culture Collection (ATCC) and was cultured in RPMI1640 medium at 37° C., under 5% CO2. Total RNA was extracted using Trizol reagent (Invitrogen) according to the manufactures recommended protocol.
The change in RNA amount was analyzed by culturing the cells with 2 μM concentration of peptide 2b or peptide 2c and with lipofectamine.
HCT116 cells were treated with 2 μM of peptide 2b, 2c, 1e or 0.2 μg/ml of doxorubicin for 3 hrs before analyzing the production of mature miRNA in total RNA using northern blotting. The 18S rRNA band intensity was used as the loading control. […] Peptide 1e was used as a negative control. Decade marker (Ambion) and 10˜20 μg of total RNA were separated by using 12.5% polyacrylamide gel containing 7M urea in 20 mM of 3-(N-morpholino)propanesulfonic acid (MOPS)-NaOH(pH 7.0) buffer at 350V for 2 hrs. RNA blotting was performed by chemical cross-linking method. Each of the separated RNA was transferred with the neutral nylon membrane (Hybond NX, Amersham/Pharmacia) and crosslinked to the membrane using 1-ethyl-3-(3-dimethylaminopropyl)carbodiimide (EDC). The membrane was prehybridized with the hybridization buffer (Clontech, CA, USA) containing 50 μl of 10 mg/ml of salmon sperm DNA. Next, the isotope labeled probe DNA which is complementary to the miRNA sequence was hybridized for 2 hrs in the same buffer condition.
The probe was isotope labeled with 25 μCi of [γ-^32P] ATP (New England Biolabs) and 5 units of polynucleotide kinase (New England Biolabs). The probe was ethanol precipitated and dissolved in 50 μl of DEPC treated water for use. The membrane was washed twice for 30 min with 200 ml of wash buffer containing 0.3 M NaCl, 0.03 M sodium citrate and 0.05% sodium dodecyl sulfate (SDS)(pH 7.0), then washed twice for 15 min with 200 ml of wash buffer containing 0.015 M NaCl, 0.0015 M sodium citrate and 0.1% SDS(pH 7.0). The membrane was exposed on the phosphorimager screen and each of the band intensity was detected by FLA-3000 and analyzed by using MultiGauge Ver. 3.0 software (Fuji Photo).

| Sequence | initial reaction velocity (V0) of Dicer, normalized to no peptide [1] | level of mature miR16-1 [2] | hill slope ([1]; FIG. 3, concentration dependence, pre-miRNA substrate not named) | EC50 ([1]; FIG. 3, concentration dependence, pre-miRNA substrate not named, read-out: EC50 of initial velocity of Dicer in processing pre-miRNA) | initial reaction velocity of Dicer ([1]; peptide concentration higher than 100 nM) | initial reaction velocity of Dicer ([1]; peptide concentration higher than 1,000 nM) |
| --- | --- | --- | --- | --- | --- | --- |
| WKKLLKLLKKWLKLAG [Peptide 2c, Ac-WKKLLKLLKKWLKLAG, 14] | increase in initial reaction velocity; also recorded: accelerated | – | – | – | – | – |
| WKKLLKWLKKLLKLAG [Peptide 2b, Ac-WKKLLKWLKKLLKLAG, 13] | highest acceleration; also recorded: profound increase | increased | 3.5 | 940 nM | significant increase; also recorded: rapid increase | decrease |
